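Growth conditions: 96-well plates. Treatment: test compound, 48 hours, 5 concentrations. Analysis: linear interpolation between bracketing concentrations; unreached endpoints set to highest concentration. GI50 marks 50% less growth.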 The source made the active and inactive calls. Cut-off read from the data, not from the text of the source: active = GI50 up to about 1.1 µM and inactive = higher.
Tests used:
Assay in all cases: DTP human tumour cell line panel, 48 h
[1] = test system: BT-549
[2] = test system: SK-MEL-5
[3] = test system: SK-MEL-28
[4] = test system: MDA-N
[5] = test system: HCT-116
[6] = test system: UACC-62
[7] = test system: MDA-MB-231
[8] = test system: SF-295
[9] = test system: SN12C
[10] = test system: OVCAR-3
[11] = test system: OVCAR-8
[12] = test system: HOP-62
[13] = test system: HOP-92
[14] = test system: MOLT-4
[15] = test system: SNB-75
[16] = test system: OVCAR-5
[17] = test system: U-251
[18] = test system: NCI-H23
[19] = test system: NCI-H460
[20] = test system: SK-OV-3

SMILES | GI50 [1] | GI50 [2] | GI50 [3] | GI50 [4] | GI50 [5] | GI50 [6] | GI50 [7] | GI50 [8] | GI50 [9] | GI50 [10] | GI50 [11] | GI50 [12] | GI50 [13] | GI50 [14] | GI50 [15] | GI50 [16] | GI50 [17] | GI50 [18] | GI50 [19] | GI50 [20]
CCCCCCCCCCCCNC(=O)CCC(NC(=O)c1ccc(N(C)Cc2cnc3nc(N)nc(N)c3n2)cc1)C(=O)NCCCCCCCCCCCC (stereo not given) | 41.2 µM (inactive) | > 100 µM (inactive) | 43.3 µM (inactive) | 41.7 µM (inactive) | 26.6 µM (inactive) | 55.5 µM (inactive) | 10.1 µM (inactive) | 25.4 µM (inactive) | 91.8 µM (inactive) | 31.5 µM (inactive) | 16.9 µM (inactive) | 23.6 µM (inactive) | 9.44 µM (inactive) | > 100 µM (inactive) | 3.68 µM (inactive) | > 100 µM (inactive) | 12.3 µM (inactive) | 53.3 µM (inactive) | – | –
COc1cc(S(=O)(=O)Nc2ccc(-c3csc(N4C(=O)CSC4c4ccccc4)n3)cc2)ccc1Cl (stereo not given) | 75.5 µM (inactive) | 92.9 µM (inactive) | 22.9 µM (inactive) | 39.9 µM (inactive) | 54 µM (inactive) | 13.2 µM (inactive) | – | 96.6 µM (inactive) | > 100 µM (inactive) | > 100 µM (inactive) | > 100 µM (inactive) | 81.8 µM (inactive) | 20.6 µM (inactive) | 25.6 µM (inactive) | 67.3 µM (inactive) | > 100 µM (inactive) | – | > 100 µM (inactive) | 31.4 µM (inactive) | > 100 µM (inactive)
O=c1c2cc(S(=O)(=O)O)ccc2nc(COc2ccc(Oc3ccc(Cl)cc3Cl)cc2)n1-c1ccc(Cl)cc1Oc1c(Cl)cccc1Cl | 21.9 µM (inactive) | 17 µM (inactive) | – | 30.1 µM (inactive) | 24.8 µM (inactive) | 20.1 µM (inactive) | – | 21.8 µM (inactive) | 30.1 µM (inactive) | 23.7 µM (inactive) | 23.3 µM (inactive) | 33.7 µM (inactive) | 15.7 µM (inactive) | 36 µM (inactive) | – | 23.6 µM (inactive) | 18.3 µM (inactive) | 24.2 µM (inactive) | 19.5 µM (inactive) | 25.2 µM (inactive)
COc1ccc2c(c1)CCC/C2=N\NS(=O)(=O)c1c(C)cc(C)cc1C | 28.9 µM (inactive) | 17.3 µM (inactive) | 35.1 µM (inactive) | 28.6 µM (inactive) | 18.3 µM (inactive) | 18.7 µM (inactive) | 30.8 µM (inactive) | 34.4 µM (inactive) | 21.8 µM (inactive) | 32.4 µM (inactive) | 30.9 µM (inactive) | 43.4 µM (inactive) | 20.3 µM (inactive) | 25.5 µM (inactive) | 13.8 µM (inactive) | 39.6 µM (inactive) | 31.6 µM (inactive) | 24.8 µM (inactive) | 31 µM (inactive) | –
Cc1cccc2c1Oc1ccccc1C2NC(=O)c1ccc([N+](=O)[O-])cc1 (stereo not given) | 56 µM (inactive) | > 100 µM (inactive) | > 100 µM (inactive) | > 100 µM (inactive) | > 100 µM (inactive) | > 100 µM (inactive) | 66.1 µM (inactive) | > 100 µM (inactive) | 29.3 µM (inactive) | 99.3 µM (inactive) | > 100 µM (inactive) | 28.8 µM (inactive) | > 100 µM (inactive) | > 100 µM (inactive) | – | > 100 µM (inactive) | 57.8 µM (inactive) | > 100 µM (inactive) | > 100 µM (inactive) | –
O=C1Nc2ccccc2C1Cc1ccc([N+](=O)[O-])cc1 (stereo not given) | > 100 µM (inactive) | 57.5 µM (inactive) | > 100 µM (inactive) | 71.4 µM (inactive) | > 100 µM (inactive) | > 100 µM (inactive) | 14 µM (inactive) | > 100 µM (inactive) | > 100 µM (inactive) | > 100 µM (inactive) | > 100 µM (inactive) | > 100 µM (inactive) | – | 14.1 µM (inactive) | > 100 µM (inactive) | > 100 µM (inactive) | > 100 µM (inactive) | > 100 µM (inactive) | > 100 µM (inactive) | > 100 µM (inactive)
Oc1ccc([C@H]2c3c(O)cc(O)cc3C3c4c(cc(O)cc4[C@@H]2[C@H]2c4cc(O)cc5c4C(c4cc(O)cc(O)c4[C@@H]2c2ccc(O)cc2)[C@@H](c2ccc(O)cc2)O5)O[C@@H]3c2ccc(O)cc2)cc1 (stereo not given in full) | > 100 µM (inactive) | 7.41 µM (inactive) | 0.182 µM (active) | 0.871 µM (active) | 0.861 µM (active) | 0.15 µM (active) | > 100 µM (inactive) | 3.86 µM (inactive) | > 100 µM (inactive) | 0.569 µM (active) | 2.69 µM (inactive) | 1.09 µM (active) | – | 0.975 µM (active) | 0.5 µM (active) | 0.678 µM (active) | 3.55 µM (inactive) | 0.526 µM (active) | 3.89 µM (inactive) | –
Cc1cn([C@H]2CN(O)C[C@@H](CO)O2)c(=O)[nH]c1=O | > 100 µM (inactive) | > 100 µM (inactive) | > 100 µM (inactive) | > 100 µM (inactive) | > 100 µM (inactive) | > 100 µM (inactive) | > 100 µM (inactive) | > 100 µM (inactive) | > 100 µM (inactive) | – | > 100 µM (inactive) | > 100 µM (inactive) | – | > 100 µM (inactive) | > 100 µM (inactive) | > 100 µM (inactive) | > 100 µM (inactive) | – | > 100 µM (inactive) | > 100 µM (inactive)
COc1ccc2nc3ccc(OC)cc3c(SCc3ccccc3)c2c1 | > 100 µM (inactive) | > 100 µM (inactive) | > 85.7 µM (inactive) | – | > 74 µM (inactive) | > 100 µM (inactive) | > 100 µM (inactive) | > 91 µM (inactive) | > 100 µM (inactive) | > 100 µM (inactive) | > 84.1 µM (inactive) | > 100 µM (inactive) | > 100 µM (inactive) | > 41.6 µM (inactive) | > 88.7 µM (inactive) | > 100 µM (inactive) | > 88.3 µM (inactive) | 64.7 µM (inactive) | > 89.1 µM (inactive) | > 100 µM (inactive)
O=C(O)C1C(C(=O)Nc2ccc3c(c2)Cc2ccccc2-3)C2(Cl)C(Cl)=C(Cl)C1(Cl)C2(Cl)Cl (stereo not given) | 19.1 µM (inactive) | 14.2 µM (inactive) | 21.5 µM (inactive) | 35.6 µM (inactive) | 18.7 µM (inactive) | 16.1 µM (inactive) | 20.2 µM (inactive) | 39.1 µM (inactive) | 33.3 µM (inactive) | 17.6 µM (inactive) | 20.3 µM (inactive) | 31.2 µM (inactive) | 21.5 µM (inactive) | 11.6 µM (inactive) | 26.2 µM (inactive) | 20.4 µM (inactive) | 15.2 µM (inactive) | 17.5 µM (inactive) | – | 45.5 µM (inactive)
N=C(N)NCCN1CCCCCc2ccccc21 | 7.08 µM (inactive) | > 10 µM (inactive) | > 10 µM (inactive) | – | > 10 µM (inactive) | 9.25 µM (inactive) | > 10 µM (inactive) | > 10 µM (inactive) | > 10 µM (inactive) | > 10 µM (inactive) | > 10 µM (inactive) | > 10 µM (inactive) | 5.24 µM (inactive) | > 10 µM (inactive) | 3.48 µM (inactive) | > 10 µM (inactive) | > 10 µM (inactive) | > 10 µM (inactive) | > 10 µM (inactive) | > 10 µM (inactive)
Cc1cn2c(/C=C3/C(=O)Nc4cccc(Cl)c43)c(Cl)nc2s1 | 22.3 µM (inactive) | – | 1.12 µM (inactive) | > 100 µM (inactive) | 60.1 µM (inactive) | 19.6 µM (inactive) | 15.3 µM (inactive) | 36.3 µM (inactive) | > 100 µM (inactive) | 61.9 µM (inactive) | > 100 µM (inactive) | 13.6 µM (inactive) | 34.3 µM (inactive) | > 100 µM (inactive) | 14.2 µM (inactive) | > 100 µM (inactive) | 5.26 µM (inactive) | 25.8 µM (inactive) | – | 27.7 µM (inactive)
Brc1cccc(Nc2nc(-c3cccs3)nc3ccc(Br)cc23)c1 | 80.9 µM (inactive) | 14 µM (inactive) | 25.2 µM (inactive) | – | 30.5 µM (inactive) | 17.8 µM (inactive) | 20.7 µM (inactive) | 19.9 µM (inactive) | 22.7 µM (inactive) | 16.1 µM (inactive) | 47 µM (inactive) | 32.1 µM (inactive) | 19.6 µM (inactive) | 26.6 µM (inactive) | 41.2 µM (inactive) | 25.2 µM (inactive) | 31.5 µM (inactive) | 36.9 µM (inactive) | 21.7 µM (inactive) | > 100 µM (inactive)
COC(=O)c1cc(C)ccc1/C=C1\Cc2cc(C)c(C)cc2C1=O | > 100 µM (inactive) | > 100 µM (inactive) | > 100 µM (inactive) | > 100 µM (inactive) | > 100 µM (inactive) | 27.8 µM (inactive) | > 100 µM (inactive) | 38.7 µM (inactive) | > 100 µM (inactive) | 51.1 µM (inactive) | > 100 µM (inactive) | 39 µM (inactive) | 36.2 µM (inactive) | 33.1 µM (inactive) | 17.5 µM (inactive) | > 100 µM (inactive) | – | > 100 µM (inactive) | > 100 µM (inactive) | –
SC[C@@H]1COC[C@H](CS)S1 | > 100 µM (inactive) | > 100 µM (inactive) | > 100 µM (inactive) | > 100 µM (inactive) | > 100 µM (inactive) | > 100 µM (inactive) | > 100 µM (inactive) | > 100 µM (inactive) | > 100 µM (inactive) | > 100 µM (inactive) | > 100 µM (inactive) | > 100 µM (inactive) | – | > 100 µM (inactive) | 58.9 µM (inactive) | > 100 µM (inactive) | > 100 µM (inactive) | > 100 µM (inactive) | > 100 µM (inactive) | > 100 µM (inactive)

Reference: ChEMBL document CHEMBL1201862, “PubChem BioAssay data set” (2004)
